From patent US11161848B2, “Purinones as ubiquitin-specific protease 1 inhibitors” (FORMA Therapeutics, Inc., priority 2015, dated 2021)

Molecular target: USP1, construct USP1 (I-785, GG670, 671AA)/UAF1 (I-677)-Flag (Homo sapiens (Human), UniProt O94782, G670A/G671A)
Assay: Ubiquitin-Rhodamine 110 assay for USP1 activity, follow-up IC50 format
Assay type: biochemical

USP1, construct USP1 (I-785, GG670, 671AA)/UAF1 (I-677)-Flag, sequence (O94782 whole entry G670A/G671A): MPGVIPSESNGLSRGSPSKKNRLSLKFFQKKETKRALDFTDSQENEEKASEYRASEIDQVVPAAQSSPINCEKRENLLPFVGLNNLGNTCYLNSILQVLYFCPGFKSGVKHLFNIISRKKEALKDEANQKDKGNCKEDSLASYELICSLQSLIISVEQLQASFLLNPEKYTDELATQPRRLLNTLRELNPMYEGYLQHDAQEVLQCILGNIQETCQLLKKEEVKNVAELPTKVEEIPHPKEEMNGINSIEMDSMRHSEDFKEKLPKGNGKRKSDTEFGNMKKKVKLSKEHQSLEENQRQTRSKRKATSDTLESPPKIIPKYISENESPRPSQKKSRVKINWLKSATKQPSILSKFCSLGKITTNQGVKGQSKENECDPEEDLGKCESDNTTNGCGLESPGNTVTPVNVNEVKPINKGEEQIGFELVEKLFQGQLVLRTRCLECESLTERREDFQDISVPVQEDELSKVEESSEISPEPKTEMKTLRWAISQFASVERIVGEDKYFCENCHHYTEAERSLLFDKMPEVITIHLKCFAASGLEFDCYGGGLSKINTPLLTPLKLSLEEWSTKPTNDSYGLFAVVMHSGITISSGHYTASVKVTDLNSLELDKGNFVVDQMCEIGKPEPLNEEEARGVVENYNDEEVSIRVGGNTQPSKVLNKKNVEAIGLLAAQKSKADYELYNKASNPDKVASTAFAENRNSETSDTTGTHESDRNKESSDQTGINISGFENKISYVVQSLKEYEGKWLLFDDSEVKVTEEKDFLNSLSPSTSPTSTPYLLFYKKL
USP1, construct USP1 (I-785, GG670, 671AA)/UAF1 (I-677)-Flag, sequence (Q8TAF3 whole entry partner): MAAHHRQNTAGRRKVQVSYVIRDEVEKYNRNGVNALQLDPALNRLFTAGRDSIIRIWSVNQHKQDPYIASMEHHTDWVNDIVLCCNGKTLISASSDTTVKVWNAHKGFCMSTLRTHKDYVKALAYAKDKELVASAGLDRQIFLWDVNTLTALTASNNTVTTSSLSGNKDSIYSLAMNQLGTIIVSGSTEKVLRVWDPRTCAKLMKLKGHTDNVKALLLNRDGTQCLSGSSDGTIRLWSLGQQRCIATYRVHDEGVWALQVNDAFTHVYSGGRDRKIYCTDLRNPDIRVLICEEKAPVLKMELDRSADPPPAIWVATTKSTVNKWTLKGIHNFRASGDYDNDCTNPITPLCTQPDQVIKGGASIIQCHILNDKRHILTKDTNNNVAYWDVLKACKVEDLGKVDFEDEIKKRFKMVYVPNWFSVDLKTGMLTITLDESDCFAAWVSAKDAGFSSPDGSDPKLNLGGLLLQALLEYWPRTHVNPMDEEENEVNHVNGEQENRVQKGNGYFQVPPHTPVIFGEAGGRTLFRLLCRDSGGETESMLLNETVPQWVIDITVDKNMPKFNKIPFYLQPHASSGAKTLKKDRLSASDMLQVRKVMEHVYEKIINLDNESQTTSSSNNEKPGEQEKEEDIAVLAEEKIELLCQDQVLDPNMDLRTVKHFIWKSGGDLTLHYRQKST

**Q.** For “9-(4-(1H-pyrazol-1-yl)benzyl)-2-(2-cyclopropylphenyl)-7,9- [Compound I-94]”, which IC50 is on record?
**A.** < 50 nM
